These results are taken from US7973135B2, “Compositions and methods for targeting cancer-specific transcription complexes” (Oncotx, Inc., priority 2006, dated 2011).

What all share (type): cell-based, human
In assay [1] the test system is SK-MEL-28 cells. The experiment in a line: Cell proliferation (cell counting) of melanoma cells treated with peptides. The settings on record: for Proliferation, result in words (summary of Table 2) / Cell Count 7 days: SK-MEL-28; for Proliferation, result in words (summary of Table 2): 10 μM; for Cell Count 7 days: peptide 10 μM in media, start count 10; for Growth of melanoma cells in vitro, result in words (library screening): screening of peptide libraries using SK-MEL-28. The procedure:
(§1) Human melanoma cell lines SK-MEL-28 and WM-266-4 were obtained from the American Type Culture Collection (ATCC; Manassas, Va.; SK-MEL-28 deposited by T. Takehashi and subject to release terms set by The Memorial Sloan-Kettering Cancer Center; WM-266-4 deposited by M. Herlyn). Cells were cultured according to recommendations of ATCC (DMEM, 10% FCS, penicillin+streptomycin) and used in experiments after two passages in the laboratory. Cells were grown in 24 well plates, each treatment in triplicates. Cells were plated 16 hours prior treatments started. Peptides were added to the media, and media was changed every day during 7 day experiment. CPP concentration was 10 μM.
(§2) For cell counting, cells were trypsinized (0.25% Trypsin, 2 mM EDTA) in Ca+2, Mg+2 free PBS. Cells were precipitated and resuspended in 100 μl of PBS, and 5 μl were removed for counting
(§3) Effects of peptide drug candidates BAF57 P12 and TRAP100 P05 on cell proliferation and apoptosis were analyzed using human melanoma cell lines SK-MEL-28 and WM 266-4. Therapeutic peptides were added at a concentration of 10 μM directly to culture media. Internalization and translocation of the therapeutic peptide(s) into the cell nucleus was studied using fluorescein labeled peptides. […] As controls we used scrambled peptides. […] Simultaneous incubation of melanoma cells with both peptides caused complete inhibition of proliferation and induction of apoptosis in almost all treated cells.

The test system of assay [2] is WM 266-4 cells. The assay is described as above. The conditions noted are these: for Proliferation, result in words (summary of Table 2): 10 μM; for Cell Count 7 days: peptide 10 μM in media, start count 10, 7 days. The procedure: as §1, §2, §3
Assay [3] deals with SK-MEL-28 cells. The experiment in a line: Apoptosis (Annexin V-Cy3 kit) of melanoma cells treated with peptides. The conditions noted are these: for Apoptosis, result in words (summary of Table 2) / Apoptosis 7 days/%: SK-MEL-28; for Apoptosis, result in words (summary of Table 2): 10 μM; for Apoptosis 7 days/%: peptide 10 μM; for Apoptosis of melanoma cells in vitro, result in words (library screening): screening of peptide libraries using SK-MEL-28. The procedure:
as §1
(§4) Apoptosis was analyzed using Biovision Annexin V-Cy3 Apoptosis Kit according to manufacturer's protocols.
as §3

Assay [4] deals with WM 266-4 cells. Described as above. The settings on record: for Apoptosis, result in words (summary of Table 2): 10 μM; for Apoptosis 7 days/%: peptide 10 μM. As to the method: as §1, §4, §3

For the sequence “PKKRKVRRRRRRRPQMQQNVFQYPGAGMVPQGEANF (listed as Homo sapiens) [TRAP100 P05, NLS-CPP-interfering peptide targeting mediator complex containing cancer specific isoform of MED24/TRAP100]”, in the assay with SK-MEL-28 cells [1], the “Proliferation, result in words (summary of Table 2)” value (from here on “Proliferation, result in words”) was “suppress significantly proliferation”; the “Cell Count 7 days” value was found to be 12; the “Growth of melanoma cells in vitro, result in words (library screening)” value is reported as “inhibit growth of melanoma cells”. In the assay with WM 266-4 cells [2], the “Proliferation, result in words” value is reported as “suppress significantly proliferation” and the “Cell Count 7 days” value is reported as 15. Besides, in the assay with SK-MEL-28 cells [3], the “Apoptosis, result in words (summary of Table 2)” value (shortened to “Apoptosis, result in words”) is given as “induce apoptosis”; the “Apoptosis 7 days/%” value came to 78%; the “Apoptosis of melanoma cells in vitro, result in words (library screening)” value is reported as “stimulate apoptosis”. Further, in the assay on WM 266-4 cells [4], the “Apoptosis, result in words” value is recorded as “induce apoptosis” and the “Apoptosis 7 days/%” value is 78%.

Take “PKKRKVRRRRRRRNDRLSDGDSKYSQTSHKLVQLL (listed as Homo sapiens) [BAF57 P12, NLS-CPP-interfering peptide targeting chromatin modifying complex containing cancer specific isoform of BAF57]”: in the assay on SK-MEL-28 cells [1], the “Proliferation, result in words” value is given as “suppress significantly proliferation”; the “Cell Count 7 days” value is 16; the “Growth of melanoma cells in vitro, result in words (library screening)” value is “inhibit growth of melanoma cells”. Besides, in the assay with WM 266-4 cells [2], the “Proliferation, result in words” value was “suppress significantly proliferation” and the “Cell Count 7 days” value stood at 17. In the assay on SK-MEL-28 cells [3], the “Apoptosis, result in words” value is on record as “induce apoptosis”; the “Apoptosis 7 days/%” value is reported as 65%; the “Apoptosis of melanoma cells in vitro, result in words (library screening)” value is “stimulate apoptosis”. For the same sequence, in the assay on WM 266-4 cells [4], the “Apoptosis, result in words” value is listed as “induce apoptosis” and the “Apoptosis 7 days/%” value is recorded as 59%.
